Structures can show the parent of a compound that is named as a salt.

The target in this experiment is T1, recombinant human MetAP2 (Homo sapiens, UniProt P50579).
T1 construct: made in house; host or cells: Sf9 insect cells
T1 sequence (P50579 whole entry): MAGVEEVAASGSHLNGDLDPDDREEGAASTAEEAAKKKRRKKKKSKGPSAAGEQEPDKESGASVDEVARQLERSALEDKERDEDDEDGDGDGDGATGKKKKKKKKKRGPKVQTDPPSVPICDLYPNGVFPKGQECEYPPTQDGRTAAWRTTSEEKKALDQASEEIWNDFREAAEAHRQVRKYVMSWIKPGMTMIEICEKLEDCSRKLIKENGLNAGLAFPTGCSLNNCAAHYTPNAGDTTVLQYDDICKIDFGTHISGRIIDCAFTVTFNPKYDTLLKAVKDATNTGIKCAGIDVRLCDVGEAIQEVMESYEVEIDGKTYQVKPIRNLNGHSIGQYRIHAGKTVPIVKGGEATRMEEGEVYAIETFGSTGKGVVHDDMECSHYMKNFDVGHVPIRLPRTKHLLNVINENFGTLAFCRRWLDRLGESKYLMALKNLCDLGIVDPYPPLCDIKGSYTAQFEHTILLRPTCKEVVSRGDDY
Nature of the experiment: Inhibition of recombinant human MetAP2 activity (fluorescence, MAS substrate, amino acid oxidase/Amplex red). The format is biochemical. Conditions: manganese enzyme; 0.75 mM Methionine-Alanine-Serine (MAS) substrate; 30 minutes at 25° C.; pH 7.5; 1% DMSO. Here is the method: Compounds are tested for their capacity to inhibit recombinant human MetAP2 activity using the following assay.
Human recombinant MetAP2 expressed in Sf9 cells followed by affinity purification and EDTA treatment to remove endogenous active site cation was dialysed against MnCl2 to produce the manganese enzyme used in the assay. The assay was carried out for 30 minutes at 25° C. in 50 mM HEPES buffer containing 100 mM NaCl, pH 7.5 the presence of 0.75 mM Methionine-Alanine-Serine (MAS) substrate and 50 μg/ml amino acid oxidase using a dilution of purified MetAP2 giving >3-fold signal: noise. Cleavage of the substrate by MetAP2 and oxidation of free methionine by amino acid oxidase was detected and quantified using fluorescence generated by Amplex red (10-acetyl-3,7-dihydroxyphenoxazine) in combination with horseradish peroxidase which detects H2O2 released during the oxidation step. The fluorescent signal was detected using a multiwell fluorimeter. Compounds were diluted in DMSO prior to addition to assay buffer, the final DMSO concentration in the assay being 1%.
IC50 values are calculated using the XLfit software package (version 2.0.5).
Regarding `O=C(O)c1c(NS(=O)(=O)c2ccccc2)ccc2c1OC[C@H]1OCC[C@@H]21` (racemic) [Cis-(3aRS,9bRS)-7-(Benzenesulfonylamino)-1,3a,4,9b-tetrahydro-2H-furo[2,3-c]chromene-6-carboxylic acid], the IC50 – broadly, the midpoint of a concentration-inhibition curve – lay within 50 to 500 nM.

In the case of `CCN1CC[C@@H](OCc2cc(F)ccc2S(=O)(=O)Nc2ccc3c(c2C(=O)O)OC[C@@H]2C[C@H]32)C1` [(1aR,7bS)-5-[2-((R)-1-Ethylpyrrolidin-3-yloxymethyl)-4-fluoro-benzenesulfonylamino]-1,1a,2,7b-tetrahydrocyclopropa-[c]chromene-4-carboxylic acid], the IC50 was in the range of 50 to 500 nM.

Take `CCN1CC[C@H](CCNc2ccccc2S(=O)(=O)Nc2ccc3c(c2C(=O)O)OC[C@@H]2C[C@H]32)C1` (mixture of isomers) [(1aRS,7bSR)-5-{2-[2-((S)-1-Ethylpyrrolidin-3-yl)ethylamino]-benzenesulfonyl-amino}-1,1a,2,7b-tetrahydrocyclopropa-[c]chromene-4-carboxylic acid]: the IC50 fell in the range of 50 to 500 nM.

As for `CCN(CC)C/C=C\c1cc(F)ccc1S(=O)(=O)Nc1ccc2c(c1C(=O)O)OC[C@@H]1C[C@H]21` [(1aR,7bS) 5-[2-((Z)-3-Diethylaminoprop-1-enyl)-4-fluorobenzenesulfonyl-amino]-1,1a,2,7b-tetrahydrocyclopropa[c]chromene-4-carboxylic acid], the IC50 was < 50 nM.

In the case of `CCN(CC)C/C=C\c1cc(F)ccc1S(=O)(=O)Nc1ccc2c(c1C(=O)O)OCC1CC21` (centres unmarked) [5-[2-((Z)-3-Diethylaminoprop-1-enyl)-4-fluorobenzenesulfonyl-amino]-1,1a,2,7b-tetrahydrocyclopropa[c]chromene-4-carboxylic acid], the IC50 is < 50 nM.

For `CCN1CCN(Cc2cc(F)ccc2S(=O)(=O)Nc2ccc3c(c2C(=O)O)OC[C@@H]2C[C@H]32)C(=O)C1` (racemic) [(1aRS,7bSR)-5-[2-(4-Ethyl-2-oxopiperazin-1-ylmethyl)-4-fluorobenzene-sulfonylamino]-1,1a,2,7b-tetrahydrocyclopropa-[c]chromene-4-carboxylic acid], the IC50 fell in the range of 50 to 500 nM.

Consider `CCN(CC)C/C=C\c1cc(F)ccc1S(=O)(=O)Nc1ccc2c3c(cnc2c1C(=O)O)OCC3` [7-[2-((Z)-3-Diethylaminoprop-1-enyl)-4-fluorobenzenesulfonyl-amino]-1,2-dihydrofuro[2,3-c]quinoline-6-carboxylic acid formate salt], for which the IC50 was < 50 nM.

`O=C(O)c1c(NS(=O)(=O)c2ccc(F)cc2CCN2CCCC2)ccc2c1OC[C@@H]1C[C@H]21` (racemic) [(1aRS,7bSR)-5-{2-[2-(Pyrrolidin-1-yl)-ethyl]-4-fluorobenzene-sulfonylamino}-1,1a,2,7b-tetrahydrocyclopropa[c]chromene-4-carboxylic acid]: the IC50 lay within 50 to 500 nM.

Consider `CCN1CCN(CCc2cc(F)ccc2S(=O)(=O)Nc2ccc3c(c2C(=O)O)OC[C@@H]2C[C@H]32)CC1` (racemic) [(1aRS,7bSR)-5-{2-[2-(4-Ethylpiperazin-1-yl)-ethyl]-4-fluorobenzenesulfonylamino}-1,1a,2,7b-tetrahydrocyclopropa[c]chromene-4-carboxylic acid], for which the IC50 was 50 to 500 nM.

Consider `CN(C)CCCCN(C)c1ccccc1S(=O)(=O)Nc1ccc2c(c1C(=O)O)OC[C@@H]1C[C@H]21` (racemic) [(1aRS,7bSR)-5-{2-[N-(4-Dimethylaminobutyl)-N-methylamino]-benzenesulfonyl-amino}-1,1a,2,7b-tetrahydrocyclopropa-[c]chromene-4-carboxylic acid], for which the IC50 was > 500 nM.

On to `CN(C)CCCCNc1ccccc1S(=O)(=O)Nc1ccc2c(c1C(=O)O)OC[C@@H]1C[C@H]21` (racemic) [(1aRS,7bSR)-5-[2-(4-Dimethylaminobutylamino)benzene-sulfonylamino]-1,1a,2,7b-tetrahydrocyclopropa[c]chromene-4-carboxylic acid], for which the IC50 was < 50 nM.

Values taken from patent US9617237B2, “Partially saturated tricyclic compounds and methods of making and using same” (Zafgen, Inc., priority 2011, dated 2017).
